Results reported in US6352958B1, “Cycloimido-substituted benzofused heterocyclic herbicides” (FMC Corporation, priority 1997, dated 2002).

What was measured:
Type in all cases: in vivo
[1] = test system: Johnsongrass (Sorghum halepense); assay: Postemergence herbicidal activity, johnsongrass; details: rate of application 0.3 Kg/Ha, rated after 12-17 days
[2] = test system: blackgrass (Aloepecurus myosuroides); assay: Preemergence herbicidal activity, blackgrass; details: Rate of Application 0.3 Kg/Ha, examined after 12-17 days
[3] = test system: common chickweed (Stellaria media); assay: Postemergence herbicidal activity, chickweed; details: rate of application 0.3 Kg/Ha, rated after 12-17 days
[4] = test system: green foxtail (Setaria viridis); assay: Postemergence herbicidal activity, green foxtail; details: rate of application 0.3 Kg/Ha, rated after 12-17 days
[5] = test system: common chickweed (Stellaria media); assay: Preemergence herbicidal activity, chickweed; details: Rate of Application 0.3 Kg/Ha, examined after 12-17 days
[6] = test system: velvetleaf (Abutilon theophrasti); assay: Preemergence herbicidal activity, velvetleaf; details: Rate of Application 0.3 Kg/Ha, examined after 12-17 days
[7] = test system: soybean (Glycine max var. Winchester); assay: Preemergence herbicidal activity, soybean; details: Rate of Application 0.3 Kg/Ha, examined after 12-17 days
[8] = test system: soybean (Glycine max var. Winchester); assay: Postemergence herbicidal activity, soybean; details: rate of application 0.3 Kg/Ha, rated after 12-17 days
[9] = test system: green foxtail (Setaria viridis); assay: Preemergence herbicidal activity, green foxtail; details: Rate of Application 0.3 Kg/Ha, examined after 12-17 days
[10] = test system: wheat (Triticum aestivum var. Lew); assay: Postemergence herbicidal activity, wheat; details: rate of application 0.3 Kg/Ha, rated after 12-17 days
[11] = test system: velvetleaf (Abutilon theophrasti); assay: Postemergence herbicidal activity, velvetleaf; details: rate of application 0.3 Kg/Ha, rated after 12-17 days
[12] = test system: common cocklebur (Xanthium strumarium L.); assay: Preemergence herbicidal activity, cocklebur; details: Rate of Application 0.3 Kg/Ha, examined after 12-17 days
[13] = test system: morningglory (Ipomea lacunosa or Ipomea hederacea); assay: Postemergence herbicidal activity, morningglory; details: rate of application 0.3 Kg/Ha, rated after 12-17 days
[14] = test system: blackgrass (Aloepecurus myosuroides); assay: Postemergence herbicidal activity, blackgrass; details: rate of application 0.3 Kg/Ha, rated after 12-17 days
[15] = test system: wheat (Triticum aestivum var. Lew); assay: Preemergence herbicidal activity, wheat; details: Rate of Application 0.3 Kg/Ha, examined after 12-17 days
[16] = test system: common cocklebur (Xanthium strumarium L.); assay: Postemergence herbicidal activity, cocklebur; details: rate of application 0.3 Kg/Ha, rated after 12-17 days
[17] = test system: morningglory (Ipomea lacunosa or Ipomea hederacea); assay: Preemergence herbicidal activity, morningglory; details: Rate of Application 0.3 Kg/Ha, examined after 12-17 days
[18] = test system: field corn (Zea mays var. Pioneer 3732); assay: Postemergence herbicidal activity, corn; details: rate of application 0.3 Kg/Ha, rated after 12-17 days
[19] = test system: Johnsongrass (Sorghum halepense); assay: Preemergence herbicidal activity, johnsongrass; details: Rate of Application 0.3 Kg/Ha, examined after 12-17 days
[20] = test system: field corn (Zea mays var. Pioneer 3732); assay: Preemergence herbicidal activity, corn; details: Rate of Application 0.3 Kg/Ha, examined after 12-17 days

SMILES	Postemergence herbicidal activity (% control) SORHA [1]	PREEMERGENCE HERBICIDAL ACTIVITY (% CONTROL) ALOMY [2]	Postemergence herbicidal activity (% control) STEME [3]	Postemergence herbicidal activity (% control) SETVI [4]	PREEMERGENCE HERBICIDAL ACTIVITY (% CONTROL) STEME [5]	PREEMERGENCE HERBICIDAL ACTIVITY (% CONTROL) ABUTH [6]	PREEMERGENCE HERBICIDAL ACTIVITY (% CONTROL) SOY [7]	Postemergence herbicidal activity (% control) SOY [8]	PREEMERGENCE HERBICIDAL ACTIVITY (% CONTROL) SETVI [9]	Postemergence herbicidal activity (% control) WHT [10]	Postemergence herbicidal activity (% control) ABUTH [11]	PREEMERGENCE HERBICIDAL ACTIVITY (% CONTROL) XANPE [12]	Postemergence herbicidal activity (% control) IPOSS [13]	Postemergence herbicidal activity (% control) ALOMY [14]	PREEMERGENCE HERBICIDAL ACTIVITY (% CONTROL) WHT [15]	Postemergence herbicidal activity (% control) XANPE [16]	PREEMERGENCE HERBICIDAL ACTIVITY (% CONTROL) IPOSS [17]	Postemergence herbicidal activity (% control) CRN [18]	PREEMERGENCE HERBICIDAL ACTIVITY (% CONTROL) SORHA [19]	PREEMERGENCE HERBICIDAL ACTIVITY (% CONTROL) CRN [20]
Cn1c(C(F)(F)F)cc(=O)n(-c2c(F)cc(Cl)c3cc(C(N)=O)oc23)c1=O [Compound 273]	100%	90%	90%	100%	100%	100%	100%	95%	100%	60%	100%	100%	100%	80%	80%	100%	100%	95%	100%	90%
CCN(CC)Cc1cc2c(Cl)ccc(-n3c(=O)cc(C(F)(F)F)n(C)c3=O)c2o1 [Compound 257]	50%	20%	30%	70%	0%	90%	40%	70%	70%	20%	100%	20%	60%	30%	0%	70%	70%	70%	10%	10%
C=Cc1cc2c(Cl)cc(F)c(-n3c(=O)cc(C(F)(F)F)n(C)c3=O)c2o1 [Compound 230]	90%	80%	90%	100%	100%	100%	100%	95%	100%	40%	100%	100%	100%	70%	40%	100%	100%	80%	100%	80%
Cn1c(C(F)(F)F)cc(=O)n(-c2ccc(Cl)c3cc(NC(=O)OC(C)(C)C)oc23)c1=O [Compound 272]	40%	70%	50%	70%	100%	100%	20%	50%	90%	30%	100%	20%	60%	20%	0%	50%	70%	45%	60%	20%
Cn1c(C(F)(F)F)cc(=O)n(-c2c(F)cc(Cl)c3nc(-c4ccccc4)[nH]c23)c1=O [Compound 375]	100%	80%	100%	80%	95%	100%	80%	95%	100%	40%	100%	80%	95%	90%	30%	100%	80%	90%	95%	90%
CCc1nc2c(-n3c(=O)cc(C(F)(F)F)n(C)c3=O)c(F)cc(Cl)c2o1 [Compound 25]	90%	90%	100%	100%	100%	100%	100%	100%	100%	80%	100%	95%	100%	80%	100%	100%	100%	90%	100%	100%
Cc1nc2c(-n3c(=O)cc(C(F)(F)F)n(C)c3=O)c(F)cc(Br)c2o1 [Compound 16]	80%	80%	70%	80%	100%	100%	100%	95%	100%	60%	100%	90%	100%	70%	70%	95%	100%	80%	95%	90%
Cn1c(C(F)(F)F)cc(=O)n(-c2c(F)cc(Br)c3oc(NS(C)(=O)=O)nc23)c1=O [Compound 108]	20%	50%	0%	70%	40%	70%	0%	50%	50%	20%	20%	10%	60%	10%	0%	10%	50%	60%	30%	10%
